Tests used:
HeLa cells [1] = assay: Extracellular acidification rates (ECAR), Seahorse XF24 flux analyser; type: cell-based, human; conditions: 1 µM, both siCtrl- and siOPA1-transfected cells
Source text: (§1) The inventors assessed oxygen consumption rates (OCR), a direct measure of oxidative phosphorylation activity, and extracellular acidification rates (ECAR), representative of glycolysis, since it accounts for approximately 80% of acidification (Wu et al., 2007, Xie et al., 2009), using the Seahorse XF24 flux analyser (Seahorse Bioscience Inc, North Billerica, MA, USA). Basal respiration was 38% lower in siOPA1-transfected HeLa cells than siCtrl-treated cells (Figure 1). Furthermore, ATP-linked respiration measured in the presence of oligomycin, which inhibits ATP synthase, was reduced by 40%. The maximal OCR measured in the presence of the protonophore FCCP, which uncouples oxidation and phosphorylation, was reduced by 58%. […] Indeed, citrate synthase activity and quantity and HSP60, VDAC, and TOM20 levels were unchanged (Figures 18 and 19).
Oxygen consumption rates (OCR) and extracellular acidification rates (ECAR) were measured using the XF24 Extracellular Flux Analyser (Seahorse Bioscience, North Billerica, MA). HeLa cells (15.103) transfected with siCtrl or siOPA1 were plated on XF24 microplates three days before OCR measurements. Dual-analyte sensor cartridges were soaked in XF Calibrant Solution (Seahorse Biosciences) in 24-well cell-culture microplates overnight at 37°C to hydrate. […]

HeLa cells [2] = assay: Oxygen consumption rates (OCR), Seahorse XF24 flux analyser; type: cell-based, human; conditions: for effect on OCR / mitochondrial respiration: rotenone 1 µM plus antimycin A 1 µM, siOPA1- and siCtrl-transfected cells; for oxygen consumption due to mitochondrial respiration: shown by rotenone plus antimycin, both siOPA1- and siCtrl-transfected cells
Source text: as §1
Oxygen consumption rates (OCR) and extracellular acidification rates (ECAR) were measured using the XF24 Extracellular Flux Analyser (Seahorse Bioscience, North Billerica, MA). HeLa cells (15.103) transfected with siCtrl or siOPA1 were plated on XF24 microplates three days before OCR measurements. Dual-analyte sensor cartridges were soaked in XF Calibrant Solution (Seahorse Biosciences) in 24-well cell-culture microplates overnight at 37°C to hydrate. Approximately one hour prior to experimentation, injection ports on the sensor cartridge were filled with oligomycin (1 µM), Carbonyl cyanide 4-(trifluoromethoxy) phenylhydrazone (FCCP) (1 µM), and rotenone (1 µM) plus antimycin A (1 µM). Plates were then loaded into the XF24 instrument for calibration. For measuring oxygen consumption, the DMEM growth media of HeLa cells was replaced by DMEM supplemented with NaCl (143 mM), Phenol Red (3 mg/ml), glucose (10 mM), glutamine (2 mM), and pyruvate (2 mM) at pH 7.4, and the plates maintained at 37°C 1 h prior to experimentation. Plates were then loaded into the Seahorse XF24 analyser following the manufacturer's instructions.

CC[C@H]1/C=C/C=C/C[C@@H](C)[C@H](O)[C@@](C)(O)C(=O)[C@@H](C)[C@H](O)[C@@H](C)C(=O)[C@@H](C)[C@H](O)[C@@H](C)/C=C/C(=O)O[C@@H]2[C@H](C)[C@H](CC1)O[C@]1(CC[C@H](C)[C@H](C[C@@H](C)O)O1)[C@H]2C [oligomycin]
effect of oligomycin injection on ECAR (HeLa cells [1]): increased

C=C(C)[C@H]1Cc2c(ccc3c2O[C@@H]2COc4cc(OC)c(OC)cc4[C@@H]2C3=O)O1 [rotenone]
effect on OCR / mitochondrial respiration (HeLa cells [2]): inhibited mitochondrial respiration
effect on OCR / mitochondrial respiration (HeLa cells [2]; listed as Rotenone): considerably decreased
oxygen consumption due to mitochondrial respiration (HeLa cells [2]): more than 95%

antimycin A
effect on OCR / mitochondrial respiration (HeLa cells [2]): inhibited mitochondrial respiration
effect on OCR / mitochondrial respiration (HeLa cells [2]; listed as antimycin): considerably decreased
oxygen consumption due to mitochondrial respiration (HeLa cells [2]): more than 95%

Reference: patent publication EP4439067A1, “METHOD FOR IDENTIFYING REACTIVE OXYGEN SPECIES” (Centre National de la Recherche Scientifique, priority 2023, dated 2024)
